Values joined by “and” are separate entries in the source; they are usually repeats but may differ in a detail not shown here. Equal values may be shown once. Read-outs that look alike come from different tables or passages of the source.
Test: Rat PK study #4 (Compound A PO 0.2 and 1.0 mg/kg, propylene glycol formulation)
Assay type: in vivo, Lewis rats
Settings: propylene glycol-based formulation; for Plasma Concentration / concentration at 0.25 h / concentration at 0.5 h / concentration at 1 h / concentration at 2 h / concentration at 4 h / concentration at 6 h / concentration at 8 h / concentration at 24 h: Lewis rats; for MRT inf: read-out: MRTInf_obs
Procedure: For the fourth rat pharmacokinetic study, the pharmacokinetics of Compound A were assessed in male Lewis rats. Compound A was prepared in two different doses (0.2 mg/kg and 1.0 mg/kg) formulated in 20% propylene glycol/20% Vitamin E TPGS/60% water (see Table 1A for formulations). Animals were divided into two groups based on the compound formulation (n=3/group). The Compound A solutions were administered to animals orally (PO) and animals were then monitored over a 24 h period.
Blood samples (~0.2 mL) were collected according to a schedule (0.25, 0.5, 1, 2, 4, 6, 8, and 24 h following the initial dosing) by jugular vein by cannulation and EDTA-K2 was used as anticoagulant. Within 30 minutes of collection, the samples were centrifuged at approximately 4000 times g-force for 5 minutes at 4° C. to obtain blood plasma. The plasma samples were immediately divided into two aliquots (~75 μL each), transferred to a cryogenic vial, and stored in a freezer at −75±15° C. prior to analysis.
The concentration of Compound A in plasma samples was determined by liquid chromatography-mass spectrometry (LC-MS/MS) using a Shimadzu HPLC (DGU-20A5R; LC-30AD; SIL-30AC; Rack changer II; CTO-30A; and CBM-20A) and an AB API 5500+LC/MS/MS instrument. Samples were analyzed on an Agilent Poroshell 120 EC-C18 4 μm (50×2.1 mm) column. Solution A in the mobile phase was 95% water (0.1% formic acid) and solution B was 95% acetonitrile in water (0.1% formic acid), injection volume was 10 μL, and flow rate was 0.6 mL/min.
To prepare samples for analysis, serial concentrations were prepared by diluting the stock solution of analyte with a 50% acetonitrile in water solution. 5 μL working solutions (5, 10, 20, 50, 100, 500, 1000, 5000, and 10000 ng/ml) were added to 50 μL of the blank Lewis rat plasma to achieve calibration standards of ~0.5 to 1000 ng/ml (0.5, 1, 2, 5, 10, 50, 100, 500, and 1000 ng/ml) in a total volume of 55 μL. Five quality control samples at 1 ng/ml, 2 ng/ml, 5 ng/ml, 50 ng/ml, and 800 ng/ml for plasma were prepared independently of those used for the calibration curves. These QC samples were prepared on the day of analysis in the same way as calibration standards.
55 μL of standards, 55 μL of QC samples and 55 μL of unknown samples (50 μL of unknown rat plasma with 5 µL of blank solution) were added to 200 μL of acetonitrile containing IS mixture (verapamil) for precipitating protein respectively. The samples were then vortexed for 30 s. After centrifugation at 4° C., 3900 rpm for 15 min, the supernatant was diluted 3 times with water. 10 μL of diluted supernatant was injected into the LC/MS/MS system for quantitative analysis.

[1] = 0.2 mg/kg PO, individual animals
[2] = male, Lewis, rat, plasma, po, 0.2 mg/kg, 0.2 mg/kg PO, individual animals
[3] = male, Lewis, rat, plasma, po, 0.2 mg/kg, 0.2 mg/kg PO, mean
[4] = male, Lewis, rat, plasma, po, 1 mg/kg, 1 mg/kg PO, individual animals
[5] = male, Lewis, rat, plasma, po, 1 mg/kg, 1 mg/kg PO, mean

Cn1cc(-c2ccccc2)c(-c2cn(C)c(=O)c3[nH]c(-c4cnn(C(F)(F)F)c4)cc23)cc1=O [Compound A, 6-methyl-4-(1-methyl-2-oxo-5-phenyl-1,2-dihydropyridin-4-yl)-2-(1-(trifluoromethyl)-1H-pyrazol-4-yl)-1,6-dihydro-7H-pyrrolo[2,3-c]pyridin-7-one]
AUCInf [1]: 82.0 ng·h/mL and 51.1 ng·h/mL and 103 ng·h/mL
AUC_%Extrap_obs [1]: 7.28% and 43.9% and 3.68%
AUClast [1]: 76.0 ng·h/mL and 28.7 ng·h/mL and 99.1 ng·h/mL
AUClast/D [1]: 380 (ng · h/mL)/(mg/kg) and 143 (ng · h/mL)/(mg/kg) and 496 (ng · h/mL)/(mg/kg)
Cmax [1]: 5.29 ng/mL and 8.20 ng/mL
MRTInf_obs [1]: 9.52 h and 7.69 h
T1/2 [1]: 6.09 h and 4.94 h
AUC_%Extrap_obs (0.2 mg/kg PO, mean): 18.3%
AUClast/D (0.2 mg/kg PO, mean): 340 (ng · h/mL)/(mg/kg)
AUCInf (1 mg/kg PO, individual animals): 454 ng·h/mL and 217 ng·h/mL
AUC_%Extrap_obs (1 mg/kg PO, individual animals): 3.74% and 14.6%
AUClast (1 mg/kg PO, individual animals): 437 ng·h/mL and 185 ng·h/mL and 447 ng·h/mL
AUClast/D (1 mg/kg PO, individual animals): 437 (ng · h/mL)/(mg/kg) and 185 (ng · h/mL)/(mg/kg) and 447 (ng · h/mL)/(mg/kg)
Cmax (1 mg/kg PO, individual animals): 47.5 ng/mL and 23.3 ng/mL and 44.9 ng/mL
MRTInf_obs (1 mg/kg PO, individual animals): 11.4 h
T1/2 (1 mg/kg PO, individual animals): 9.35 h
AUC_%Extrap_obs (1 mg/kg PO, mean): 9.2%
AUClast/D (1 mg/kg PO, mean): 356 (ng · h/mL)/(mg/kg)
clinical symptoms (0.2 and 1 mg/kg PO): no abnormal clinical symptoms observed
Plasma Concentration (PO 1 mg/kg, 0.25 h, individual animals, 1 mg/kg): 6.05 ng/mL and 2.36 ng/mL and 5.82 ng/mL
Plasma Concentration (PO 1 mg/kg, 0.5 h, individual animals, 1 mg/kg): 19.1 ng/mL
Plasma Concentration (PO 1 mg/kg, 2 h, individual animals, 1 mg/kg): 47.5 ng/mL and 23.3 ng/mL and 44.9 ng/mL
Plasma Concentration (PO 1 mg/kg, 4 h, individual animals, 1 mg/kg): 37.4 ng/mL and 15.0 ng/mL and 27.5 ng/mL
Plasma Concentration (PO 1 mg/kg, 6 h, individual animals, 1 mg/kg): 25.4 ng/mL and 9.27 ng/mL and 16.5 ng/mL
Plasma Concentration (PO 1 mg/kg, 8 h, individual animals, 1 mg/kg): 20.4 ng/mL and 7.30 ng/mL and 11.6 ng/mL
Plasma Concentration (PO 1 mg/kg, 24 h, individual animals, 1 mg/kg): 2.29 ng/mL and 2.35 ng/mL and 19.1 ng/mL
Tmax [2]: 2 h
half-life [2]: 6.51 h
Cmax (male, Lewis, rat, plasma, po, 0.2 mg/kg, 0.2 mg/kg PO, individual animals, read-out: Cmax): 7.99 ng/mL
MRT inf [2]: 8.72 h
AUC(0-inf) [3]: 79 ng·h/mL
AUC(0-t) [3]: 67.9 ng·h/mL
Tmax [3]: 2.67 h
half-life [3]: 5.85 h
Cmax (male, Lewis, rat, plasma, po, 0.2 mg/kg, 0.2 mg/kg PO, mean, read-out: Cmax): 7.16 ng/mL
MRT inf [3]: 8.65 h
concentration at 0.25 h (male, Lewis, rat, plasma, po, 0.2 mg/kg, PO 0.2 mg/kg, 0.25 h, mean of 3 animals): 0.34 ng/mL
concentration at 0.5 h (male, Lewis, rat, plasma, po, 0.2 mg/kg, PO 0.2 mg/kg, 0.5 h, individual animals): 2.31 ng/mL
concentration at 0.5 h (male, Lewis, rat, plasma, po, 0.2 mg/kg, PO 0.2 mg/kg, 0.5 h, mean of 3 animals): 1.77 ng/mL
concentration at 1 h (male, Lewis, rat, plasma, po, 0.2 mg/kg, PO 0.2 mg/kg, individual animals): 5.24 ng/mL
concentration at 1 h (male, Lewis, rat, plasma, po, 0.2 mg/kg, PO 0.2 mg/kg, mean of 3 animals): 4.51 ng/mL
concentration at 2 h (male, Lewis, rat, plasma, po, 0.2 mg/kg, PO 0.2 mg/kg, 2 h, individual animals): 7.99 ng/mL
concentration at 2 h (male, Lewis, rat, plasma, po, 0.2 mg/kg, PO 0.2 mg/kg, 2 h, mean of 3 animals): 7.09 ng/mL
concentration at 4 h (male, Lewis, rat, plasma, po, 0.2 mg/kg, PO 0.2 mg/kg, 4 h, mean of 3 animals): 6.11 ng/mL
concentration at 6 h (male, Lewis, rat, plasma, po, 0.2 mg/kg, PO 0.2 mg/kg, 6 h, individual animals): 4.13 ng/mL
concentration at 6 h (male, Lewis, rat, plasma, po, 0.2 mg/kg, PO 0.2 mg/kg, 6 h, mean of 3 animals): 4.48 ng/mL
concentration at 8 h (male, Lewis, rat, plasma, po, 0.2 mg/kg, PO 0.2 mg/kg, 8 h, mean of 3 animals): 3.96 ng/mL
concentration at 24 h (male, Lewis, rat, plasma, po, 0.2 mg/kg, PO 0.2 mg/kg, 24 h, mean of 3 animals): 0.389 ng/mL
Tmax [4]: 2 h
half-life [4]: 5.14 h
MRT inf [4]: 7.1 h
AUC(0-inf) [5]: 335 ng·h/mL
AUC(0-t) [5]: 356 ng·h/mL
Tmax [5]: 2 h
half-life [5]: 7.24 h
Cmax (male, Lewis, rat, plasma, po, 1 mg/kg, 1 mg/kg PO, mean, read-out: Cmax): 38.6 ng/mL
MRT inf [5]: 9.3 h
concentration at 0.25 h (male, Lewis, rat, plasma, po, 1 mg/kg, PO 1 mg/kg, 0.25 h, mean of 3 animals): 4.74 ng/mL
concentration at 0.5 h (male, Lewis, rat, plasma, po, 1 mg/kg, PO 1 mg/kg, 0.5 h, mean of 3 animals): 15.2 ng/mL
concentration at 1 h (male, Lewis, rat, plasma, po, 1 mg/kg, PO 1 mg/kg, mean of 3 animals): 30.4 ng/mL
concentration at 2 h (male, Lewis, rat, plasma, po, 1 mg/kg, PO 1 mg/kg, 2 h, mean of 3 animals): 38.6 ng/mL
concentration at 4 h (male, Lewis, rat, plasma, po, 1 mg/kg, PO 1 mg/kg, 4 h, mean of 3 animals): 26.6 ng/mL
concentration at 6 h (male, Lewis, rat, plasma, po, 1 mg/kg, PO 1 mg/kg, 6 h, mean of 3 animals): 17.1 ng/mL
concentration at 8 h (male, Lewis, rat, plasma, po, 1 mg/kg, PO 1 mg/kg, 8 h, mean of 3 animals): 13.1 ng/mL
concentration at 24 h (male, Lewis, rat, plasma, po, 1 mg/kg, PO 1 mg/kg, 24 h, mean of 3 animals): 7.9 ng/mL
